The assay has as its system rats that suffer from neuropathic pain (chronic constriction injury of sciatic nerve). In words: Mechanical hyperalgesia (mechanical withdrawal threshold, Von Frey) in rats with neuropathic pain (CCI). In kind it is in vivo, rat. The method, then:
Male SD rats, 220-250 g were provided by the Department of Experimental Animals from the Medical College of Nanchang University. The rats were divided into five groups at random and 12 rats were included in each group. Experimental grouping: I (sham); II (puerarin); III (chronic constriction injuries, CCI); IV (CCI+puerarin); V (control); VI (CCI+Indo). The puerarin injection was dissolved in physiological saline and the concentration was 50 mg/mL. […]
Thiopental sodium was used to anesthetize the rats (30 mg/kg, intraperitoneal injection), and the skin in the outer side of right thighs of the rats was cut open under sterile conditions, and blunt dissection was carried out to isolate the sciatic nerves, then the sciatic nerves were slightly ligated with 4-0 chromicized catgut and four ligations were carried out in total, and an interval of about 1 mm was left between two knots. […] The rats were raised in separate cages after the operation, and mechanical withdrawal threshold and thermal withdrawal latency were determined before the operation (0 d) and 1, 3, 5, 7, 9, 11, 14 days after the operations respectively (Time for the determination is set at 10[…]00-14[…]100 everyday, and the room temperature was maintained at 22±0.5° C.). […]

This note sets out measurements from US8362070B2, “Application of puerarin in the preparation of P2X3 mediated drugs for pain/nervous system diseases” (Nanchang University, priority 2009, dated 2013).

Regarding `O=c1c(-c2ccc(O)cc2)coc2c([C@@H]3O[C@H](CO)[C@@H](O)[C@H](O)[C@H]3O)c(O)ccc12` [puerarin], the “mechanical withdrawal threshold (MWT) in comparison with group III (CCI)” value (CCI rats + puerarin, seven days after ligation, p<0.01) is reported as “significantly increased”. Moreover, the “mechanical withdrawal threshold, difference among sham, puerarin alone and control” value (puerarin alone, no CCI, p>0.05) is listed as “not significant”.
